Results taken from US20100227921A1, “AMINO ACID AND PEPTIDE CARBAMATE PRODRUGS OF […] USES THEREOF” (SHIRE LLC, priority 2009, published 2010).
Values joined by “and” are separate entries in the source; they are usually repeats but may differ in a detail not shown here. Identical values can stand only once. Like-named read-outs stand apart in the source and are kept apart here. Marks after values point to notes of the source that are not given here.

Columns and labels:
[1] = Comparative bioavailability after oral administration to rats (plasma LC-MS-MS); assay type: in vivo
Protocol: Test substances, i.e., tapentadol or tapentadol valine carbamate were administered by oral gavage to groups of male Sprague Dawley rats.
(§1) Blood samples were taken at various times after administration and submitted to analysis for the parent drug and pro-drug using a validated LC-MS-MS assay. Pharmacokinetic parameters derived from the plasma analytical data were determined using Win Nonlin.

[2] = Comparative in vivo bioavailability study in the dog (oral gavage, plasma LC-MS-MS)
Protocol: Test substances (i.e., tapentadol (1 mg/kg) and tapentadol valine carbamate (0.8 mg tapentadol base equivalents/kg)) were administered by oral gavage to a group of five dogs (dog nos. 1, 2, 3, 4 and 5) in a two-way crossover design. The characteristics of the test animals are set out in Table 3.
as §1

[3] = Comparative bioavailability after oral or intravenous administration to monkeys (plasma LC-MS-MS); assay type: in vivo, cynomolgus monkey; settings: male monkey, i.v. tapentadol valine carbamate 0.5 mg tapentadol free base equiv/kg, individual animals 1-5
Protocol: Test substances i.e., tapentadol and tapentadol valine carbamate were administered (either intravenously or orally) to a group of five male cynomolgus monkeys in a three way crossover design. The oral doses were given at 1 mg tapentadol base equivalents/kg while the intravenous dose was 0.5 mg/kg
Blood samples were taken at various times after administration and submitted to analysis for the parent drug and tapentadol valine carbamate using a validated LC-MS-MS assay. Pharmacokinetic parameters derived from the plasma analytical data were determined using Win Nonlin.

[4] = male rat, oral tapentadol valine carbamate 10 mg tapentadol free base equiv/kg, individual animals 6-10
[5] = oral tapentadol valine carbamate 0.8 mg tapentadol base equiv/kg, individual dogs 1-5

CC[C@H](c1cccc(OC(=O)N[C@H](C(=O)O)C(C)C)c1)[C@H](C)CN(C)C (racemic) [Tapentadol valine carbamate, 2-[3-(3-Dimethylamino-1-ethyl-2-methyl-propyl)-phenoxycarbonylamino]-3-methyl-butyric acid]
concentration at 0.5 h ([1]; Sprague Dawley, plasma, male rat, oral tapentadol valine carbamate 10 mg tapentadol free base equiv/kg, 0.5 h, individual animals 6-10, read-out: Plasma concentration of tapentadol valine carbamate): 64.5 ng/mL
concentration at 1 h ([1]; Sprague Dawley, plasma, male rat, oral tapentadol valine carbamate 10 mg tapentadol free base equiv/kg, 1 h, individual animals 6-10, read-out: Plasma concentration of tapentadol valine carbamate): 72.4 ng/mL
concentration at 2 h ([1]; Sprague Dawley, plasma, male rat, oral tapentadol valine carbamate 10 mg tapentadol free base equiv/kg, 2 h, individual animals 6-10, read-out: Plasma concentration of tapentadol valine carbamate): 85.8 ng/mL
concentration at 4 h ([1]; Sprague Dawley, plasma, male rat, oral tapentadol valine carbamate 10 mg tapentadol free base equiv/kg, 4 h, individual animals 6-10, read-out: Plasma concentration of tapentadol valine carbamate): 42.5 ng/mL
concentration at 6 h ([1]; Sprague Dawley, plasma, male rat, oral tapentadol valine carbamate 10 mg tapentadol free base equiv/kg, 6 h, individual animals 6-10, read-out: Plasma concentration of tapentadol valine carbamate): 30.5 ng/mL
Plasma concentration of tapentadol valine carbamate ([1]; male rat, oral tapentadol valine carbamate 10 mg tapentadol free base equiv/kg, 0.5 h, individual animals 6-10): 79.5 ng/mL and 86.5 ng/mL and 77.5 ng/mL and 111 ng/mL
Plasma concentration of tapentadol valine carbamate ([1]; male rat, oral tapentadol valine carbamate 10 mg tapentadol free base equiv/kg, 1 h, individual animals 6-10): 73.8 ng/mL and 88.9 ng/mL and 83.1 ng/mL and 115 ng/mL
Plasma concentration of tapentadol valine carbamate ([1]; male rat, oral tapentadol valine carbamate 10 mg tapentadol free base equiv/kg, 2 h, individual animals 6-10): 57.3 ng/mL and 106 ng/mL and 76.4 ng/mL and 86.6 ng/mL
Plasma concentration of tapentadol valine carbamate ([1]; male rat, oral tapentadol valine carbamate 10 mg tapentadol free base equiv/kg, 3 h, individual animals 6-10): 76.7 ng/mL and 71.6 ng/mL and 74.8 ng/mL and 34.5 ng/mL and 86.4 ng/mL
Plasma concentration of tapentadol valine carbamate ([1]; male rat, oral tapentadol valine carbamate 10 mg tapentadol free base equiv/kg, 4 h, individual animals 6-10): 46.7 ng/mL and 47.0 ng/mL and 27.5 ng/mL and 51.6 ng/mL
Plasma concentration of tapentadol valine carbamate ([1]; male rat, oral tapentadol valine carbamate 10 mg tapentadol free base equiv/kg, 6 h, individual animals 6-10): 19.9 ng/mL and 38.9 ng/mL and 22.7 ng/mL and 31.3 ng/mL
Plasma concentration of tapentadol valine carbamate ([1]; male rat, oral tapentadol valine carbamate 10 mg tapentadol free base equiv/kg, 8 h, individual animals 6-10): 32.7 ng/mL and 14.6 ng/mL and 26.5 ng/mL and 21.3 ng/mL and 25.4 ng/mL
Plasma concentration of tapentadol valine carbamate ([1]; male rat, oral tapentadol valine carbamate 10 mg tapentadol free base equiv/kg, 12 h, individual animals 6-10): 9.49 ng/mL and 27.0 ng/mL and 11.4 ng/mL and 5.81 ng/mL and 14.5 ng/mL
Plasma concentration of tapentadol valine carbamate ([1]; male rat, oral tapentadol valine carbamate 10 mg tapentadol free base equiv/kg, 24 h, individual animals 6-10): 2.00 ng/mL and 0.915 ng/mL and 0.801 ng/mL and 0.656 ng/mL and 0.548 ng/mL
AUCt of tapentadol valine carbamate [1, 4]: 599 ng·h/mL and 615 ng·h/mL and 413 ng·h/mL and 650 ng·h/mL
Cmax of tapentadol valine carbamate [1, 4]: 79.5 ng/mL and 106 ng/mL and 83.1 ng/mL and 115 ng/mL
T>50%Cmax of tapentadol valine carbamate [1, 4]: 2.5 h (2×) and 3.5 h (2×) and 1.5 h
Tmax of tapentadol valine carbamate [1, 4]: 2 h
t½ of tapentadol valine carbamate [1, 4]: 3.83 h and 3.16 h and 3.60 h and 3.06 h
T>50%Cmax of tapentadol valine carbamate ([1]; male rat, oral tapentadol valine carbamate 10 mg tapentadol free base equiv/kg, median): 2.5^a h
Peak plasma levels of tapentadol compared with those after administration of the parent drug ([1]; male rat, oral, 10 mg tapentadol free base equiv/kg): somewhat lower
concentration at 0.5 h ([1]; male, Sprague Dawley, rat, plasma, po, 10 mg tapentadol free base equiv/kg, oral tapentadol valine carbamate 10 mg tapentadol free base equiv/kg, 0.5 h, mean, read-out: Plasma concentration of tapentadol valine carbamate): 83.8 ng/mL
concentration at 1 h ([1]; male, Sprague Dawley, rat, plasma, po, 10 mg tapentadol free base equiv/kg, oral tapentadol valine carbamate 10 mg tapentadol free base equiv/kg, 1 h, mean, read-out: Plasma concentration of tapentadol valine carbamate): 86.6 ng/mL
concentration at 2 h ([1]; male, Sprague Dawley, rat, plasma, po, 10 mg tapentadol free base equiv/kg, oral tapentadol valine carbamate 10 mg tapentadol free base equiv/kg, 2 h, mean, read-out: Plasma concentration of tapentadol valine carbamate): 82.4 ng/mL
concentration at 3 h ([1]; male, Sprague Dawley, rat, plasma, po, 10 mg tapentadol free base equiv/kg, oral tapentadol valine carbamate 10 mg tapentadol free base equiv/kg, 3 h, mean, read-out: Plasma concentration of tapentadol valine carbamate): 68.8 ng/mL
concentration at 4 h ([1]; male, Sprague Dawley, rat, plasma, po, 10 mg tapentadol free base equiv/kg, oral tapentadol valine carbamate 10 mg tapentadol free base equiv/kg, 4 h, mean, read-out: Plasma concentration of tapentadol valine carbamate): 43.1 ng/mL
concentration at 6 h ([1]; male, Sprague Dawley, rat, plasma, po, 10 mg tapentadol free base equiv/kg, oral tapentadol valine carbamate 10 mg tapentadol free base equiv/kg, 6 h, mean, read-out: Plasma concentration of tapentadol valine carbamate): 28.7 ng/mL
concentration at 8 h ([1]; male, Sprague Dawley, rat, plasma, po, 10 mg tapentadol free base equiv/kg, oral tapentadol valine carbamate 10 mg tapentadol free base equiv/kg, 8 h, mean, read-out: Plasma concentration of tapentadol valine carbamate): 24.1 ng/mL
concentration at 12 h ([1]; male, Sprague Dawley, rat, plasma, po, 10 mg tapentadol free base equiv/kg, oral tapentadol valine carbamate 10 mg tapentadol free base equiv/kg, 12 h, mean, read-out: Plasma concentration of tapentadol valine carbamate): 13.6 ng/mL
concentration at 24 h ([1]; male, Sprague Dawley, rat, plasma, po, 10 mg tapentadol free base equiv/kg, oral tapentadol valine carbamate 10 mg tapentadol free base equiv/kg, 24 h, mean): 0.984 ng/mL
half-life ([1]; male, Sprague Dawley, rat, plasma, po, 10 mg tapentadol free base equiv/kg, oral tapentadol valine carbamate 10 mg tapentadol free base equiv/kg, calculated as ln2/mean k, read-out: t½ of tapentadol valine carbamate (converted)): 212 min
AUC(0-t) ([1]; male, Sprague Dawley, rat, plasma, po, 10 mg tapentadol free base equiv/kg, oral tapentadol valine carbamate 10 mg tapentadol free base equiv/kg, individual animals 6-10, read-out: AUCt of tapentadol valine carbamate): 560 ng·h/mL
Cmax ([1]; male, Sprague Dawley, rat, plasma, po, 10 mg tapentadol free base equiv/kg, oral tapentadol valine carbamate 10 mg tapentadol free base equiv/kg, individual animals 6-10, read-out: Cmax of tapentadol valine carbamate): 85.8 ng/mL
half-life ([1]; male, Sprague Dawley, rat, plasma, po, 10 mg tapentadol free base equiv/kg, oral tapentadol valine carbamate 10 mg tapentadol free base equiv/kg, individual animals 6-10, read-out: t½ of tapentadol valine carbamate (converted)): 245 min
AUC(0-t) ([1]; male, Sprague Dawley, rat, plasma, po, 10 mg tapentadol free base equiv/kg, oral tapentadol valine carbamate 10 mg tapentadol free base equiv/kg, mean, read-out: AUCt of tapentadol valine carbamate): 567 ng·h/mL
Cmax ([1]; male, Sprague Dawley, rat, plasma, po, 10 mg tapentadol free base equiv/kg, oral tapentadol valine carbamate 10 mg tapentadol free base equiv/kg, mean, read-out: Cmax of tapentadol valine carbamate): 93.9 ng/mL
Tmax ([1]; male, Sprague Dawley, rat, plasma, po, 10 mg tapentadol free base equiv/kg, oral tapentadol valine carbamate 10 mg tapentadol free base equiv/kg, median, read-out: Tmax of tapentadol valine carbamate): 1 h
half-life ([2]; Beagle, plasma, po, 0.8 mg/kg, oral tapentadol valine carbamate 0.8 mg tapentadol base equiv/kg, calculated as ln2/mean k, read-out: t½ of tapentadol valine carbamate (converted)): 288 min
Cmax ([2]; Beagle, plasma, po, 0.8 mg/kg, oral tapentadol valine carbamate 0.8 mg tapentadol base equiv/kg, individual dogs 1-5, read-out: Cmax of tapentadol valine carbamate): 42.8 ng/mL
AUC ([2]; Beagle, plasma, po, 0.8 mg/kg, oral tapentadol valine carbamate 0.8 mg tapentadol base equiv/kg, mean of 5 dogs, read-out: AUC of tapentadol valine carbamate): 205 ng·h/mL
AUC(0-t) ([2]; Beagle, plasma, po, 0.8 mg/kg, oral tapentadol valine carbamate 0.8 mg tapentadol base equiv/kg, mean of 5 dogs, read-out: AUCt of tapentadol valine carbamate): 192 ng·h/mL
Cmax ([2]; Beagle, plasma, po, 0.8 mg/kg, oral tapentadol valine carbamate 0.8 mg tapentadol base equiv/kg, mean of 5 dogs, read-out: Cmax of tapentadol valine carbamate): 53.4 ng/mL
Tmax ([2]; Beagle, plasma, po, 0.8 mg/kg, oral tapentadol valine carbamate 0.8 mg tapentadol base equiv/kg, median of 5 dogs, read-out: Tmax of tapentadol valine carbamate): 1 h
increase of duration of sustainment of active drug in the blood ([2]; following administration of the prodrug compared to tapentadol alone): two to three fold
duration of drug sustainment in plasma ([2]; oral prodrug vs oral tapentadol): doubling
AUC of tapentadol valine carbamate [2, 5]: 157 ng·h/mL and 126 ng·h/mL and 272 ng·h/mL and 221 ng·h/mL and 252 ng·h/mL
AUCt of tapentadol valine carbamate [2, 5]: 131 ng·h/mL and 119 ng·h/mL and 260 ng·h/mL and 208 ng·h/mL and 241 ng·h/mL
Cmax of tapentadol valine carbamate [2, 5]: 45.3 ng/mL and 62.3 ng/mL and 46.4 ng/mL and 70.0 ng/mL
T>50%Cmax of tapentadol valine carbamate [2, 5]: 1.5 h (4×) and 0.5 h
Tmax of tapentadol valine carbamate [2, 5]: 2 h
t½ of tapentadol valine carbamate [2, 5]: 6.7 h and 3.0 h and 5.0 h and 5.9 h and 5.3 h
T>50%Cmax of tapentadol valine carbamate ([2]; oral tapentadol valine carbamate 0.8 mg tapentadol base equiv/kg, median of 5 dogs): 1.5^a h
concentration at 0.083 h ([3]; cynomolgus monkey, plasma, iv, 0.083 h): 790 ng/mL
concentration at 0.25 h ([3]; cynomolgus monkey, plasma, iv, 0.25 h): 783 ng/mL
concentration at 1 h ([3]; cynomolgus monkey, plasma, iv, 1 h): 222 ng/mL
concentration at 2 h ([3]; cynomolgus monkey, plasma, iv, 2 h): 92.3 ng/mL
concentration at 4 h ([3]; cynomolgus monkey, plasma, iv, 4 h): 11.8 ng/mL
concentration at 6 h ([3]; cynomolgus monkey, plasma, iv, 6 h): 3.21 ng/mL
Plasma concentration of tapentadol valine carbamate ([3]; 0 h): BLQ (BLQ Values less than LOQ (<0.5 ng/mL))
Plasma concentration of tapentadol valine carbamate ([3]; 0.083 h): 951 ng/mL and 914 ng/mL and 1166 ng/mL and 1024 ng/mL
Plasma concentration of tapentadol valine carbamate ([3]; 0.25 h): 825 ng/mL and 848 ng/mL and 427 ng/mL and 672 ng/mL
Plasma concentration of tapentadol valine carbamate ([3]; 0.5 h): 119.8 ng/mL and 576 ng/mL and 620 ng/mL and 609 ng/mL and 430 ng/mL
